Values joined by “and” are separate entries in the source; they are usually repeats but may differ in a detail not shown here. Identical values can stand only once. ± gives the uncertainty stated by the source.
Assay: xn = mol fraction of the nth substance listed

ClC(Cl)C(Cl)Cl + COC(C)=O
303.15 K, 101.3 kPa
Settings	viscosity [mPa·s]
x2 = 0.103	1.379 ± 0.0097
x2 = 0.1999	1.268 ± 0.0091
x2 = 0.3012	1.147 ± 0.0083
x2 = 0.3998	1.029 ± 0.0077
x2 = 0.5031	0.8951 ± 0.007
x2 = 0.6017	0.764 ± 0.0063
x2 = 0.6999	0.6464 ± 0.0058
x2 = 0.8014	0.5324 ± 0.0054
x2 = 0.9019	0.4308 ± 0.005

CCCCCCN + COCCO
308.15 K, 101 kPa
Settings	viscosity [mPa·s]
x2 = 0.1567	0.8278 ± 0.011
x2 = 0.2965	1.059 ± 0.013
x2 = 0.4194	1.245 ± 0.016
x2 = 0.5291	1.381 ± 0.017
x2 = 0.6276	1.456 ± 0.018
x2 = 0.7166	1.459 ± 0.018
x2 = 0.7973	1.434 ± 0.018
x2 = 0.8708	1.397 ± 0.018
x2 = 0.9382	1.338 ± 0.017

CNc1ccccc1 + CS(C)=O
303 K, 101.33 kPa
Settings	viscosity [mPa·s]
x1 = 0.101	1.844 ± 0.047
x1 = 0.2001	1.861 ± 0.047
x1 = 0.3007	1.939 ± 0.049
x1 = 0.3986	2.046 ± 0.052
x1 = 0.4987	2.03 ± 0.051
x1 = 0.6003	2.106 ± 0.053
x1 = 0.6987	2.12 ± 0.054
x1 = 0.8007	2.057 ± 0.052
x1 = 0.9015	1.911 ± 0.049

Oc1ccccc1 + CS(C)=O
viscosity [mPa·s], 101 kPa
Settings	x2 = 0.2	x2 = 0.3	x2 = 0.4	x2 = 0.5	x2 = 0.6	x2 = 0.7	x2 = 0.8	x2 = 0.9
298.15 K	8.913 ± 0.093	7.767 ± 0.079	6.467 ± 0.065	5.173 ± 0.053	4.111 ± 0.042	3.282 ± 0.033	2.726 ± 0.027	2.308 ± 0.022
308.15 K	5.87 ± 0.068	5.328 ± 0.06	4.618 ± 0.05	3.826 ± 0.04	3.127 ± 0.032	2.579 ± 0.026	2.192 ± 0.022	1.902 ± 0.019
318.15 K	4.15 ± 0.05	3.888 ± 0.045	3.486 ± 0.038	2.977 ± 0.031	2.489 ± 0.025	2.09 ± 0.021	1.794 ± 0.018	1.577 ± 0.016

Oc1ccccc1 + C[N+](C)(C)CCO.[Cl-]
viscosity
Settings	101 kPa	101.33 kPa
293.15 K, x2 = 0.2	–	61.78 ± 2.1 mPa·s
293.15 K, x2 = 0.25	–	72.04 ± 2.2 mPa·s
293.15 K, x2 = 0.333	137.7 ± 3.4 mPa·s	–
298.15 K, x1 = 0.7	–	122.5 ± 44 mPa·s
298.15 K, x1 = 0.8	–	56.11 ± 16 mPa·s and 39.28 ± 8.6 mPa·s and 30.65 ± 6 mPa·s
298.15 K, x1 = 0.9	–	26.18 ± 4.8 mPa·s
298.15 K, x2 = 0.333	99.81 ± 2.3 mPa·s	–
303.15 K, x2 = 0.2	36.55 ± 1.2 mPa·s	37.73 ± 0.84 mPa·s
303.15 K, x2 = 0.25	41.2 ± 1.4 mPa·s	43.1 ± 1.8 mPa·s
303.15 K, x2 = 0.333	75.03 ± 2.6 mPa·s and 76.44 ± 1.7 mPa·s	–
308.15 K, x2 = 0.333	57.85 ± 1.2 mPa·s	–
313.15 K, x2 = 0.2	23.57 ± 0.77 mPa·s	24.63 ± 0.56 mPa·s
313.15 K, x2 = 0.25	26.84 ± 0.87 mPa·s	27.84 ± 1 mPa·s
313.15 K, x2 = 0.333	46.41 ± 1.5 mPa·s and 45.29 ± 0.97 mPa·s	–
318.15 K, x2 = 0.333	35.93 ± 0.77 mPa·s	–
323.15 K, x2 = 0.2	16.21 ± 0.53 mPa·s	17.07 ± 0.4 mPa·s
323.15 K, x2 = 0.25	18.62 ± 0.6 mPa·s	19.11 ± 0.64 mPa·s
323.15 K, x2 = 0.333	30.68 ± 1 mPa·s and 28.71 ± 0.61 mPa·s	–

Oc1ccccc1 + Cc1cccc(O)c1
298.15 K, 101 kPa
Settings	viscosity [mPa·s]
x1 = 0.1259	12.5 ± 0.19
x1 = 0.2449	11.69 ± 0.18
x1 = 0.3137	11.31 ± 0.17
x1 = 0.3848	10.95 ± 0.16
x1 = 0.4502	10.7 ± 0.16
x1 = 0.5174	10.4 ± 0.16
x1 = 0.6352	9.961 ± 0.15
x1 = 0.7325	9.698 ± 0.14
x1 = 0.819	9.398 ± 0.14
x1 = 0.8921	9.206 ± 0.13
x1 = 0.9301	9.105 ± 0.13

CC=CC(=O)O + Cc1ccccc1
viscosity [mPa·s], 101 kPa
Settings	298.15 K	303.15 K	313.15 K	323.15 K
x1 = 0.0503	0.5712 ± 0.015	0.5371 ± 0.014	0.4796 ± 0.013	0.4317 ± 0.011
x1 = 0.0975	0.5997 ± 0.016	0.5609 ± 0.015	0.4998 ± 0.013	0.4502 ± 0.012
x1 = 0.148	0.6218 ± 0.017	0.5858 ± 0.016	0.5213 ± 0.014	0.4671 ± 0.013

CCCCCCN + Cc1ccccc1
303.15 K, 101 kPa
Settings	viscosity [mPa·s]
x2 = 0.1238	0.6558 ± 0.0056
x2 = 0.2561	0.6124 ± 0.0053
x2 = 0.3598	0.5834 ± 0.0051
x2 = 0.4481	0.5588 ± 0.0049
x2 = 0.5709	0.5327 ± 0.0047
x2 = 0.6774	0.5177 ± 0.0045
x2 = 0.7639	0.5072 ± 0.0045
x2 = 0.8616	0.5035 ± 0.0044
x2 = 0.9319	0.5102 ± 0.0045

COCCOCCOC + ClC(Cl)(Cl)Cl
298.15 K, 101.33 kPa
Settings	viscosity [mPa·s]
x1 = 0.0934	0.965 ± 0.009
x1 = 0.1967	0.995 ± 0.009
x1 = 0.3018	1.023 ± 0.009
x1 = 0.4053	1.044 ± 0.009
x1 = 0.4892	1.059 ± 0.009
x1 = 0.5352	1.06 ± 0.009
x1 = 0.592	1.057 ± 0.009
x1 = 0.6503	1.052 ± 0.009
x1 = 0.6902	1.043 ± 0.009
x1 = 0.7963	1.031 ± 0.009
x1 = 0.8656	1.019 ± 0.009
x1 = 0.9021	1.011 ± 0.009
x1 = 0.9343	1.001 ± 0.009

COCCOCCOC + ClC(Cl)Cl
298.15 K, 101.33 kPa
Settings	viscosity [mPa·s]
x1 = 0.0986	0.727 ± 0.008
x1 = 0.2039	0.946 ± 0.009
x1 = 0.2993	1.028 ± 0.009
x1 = 0.3966	1.082 ± 0.01
x1 = 0.4825	1.094 ± 0.01
x1 = 0.5247	1.093 ± 0.01
x1 = 0.5864	1.08 ± 0.01
x1 = 0.6365	1.072 ± 0.009
x1 = 0.7006	1.054 ± 0.009
x1 = 0.7976	1.033 ± 0.009
x1 = 0.8985	1.011 ± 0.009
x1 = 0.9325	1.008 ± 0.009

Oc1ccccc1 + Clc1ccccc1
293.15 K, 101 kPa
Settings	viscosity [mPa·s]
x1 = 0.0584	0.825 ± 0.008
x1 = 0.115	0.888 ± 0.009
x1 = 0.2493	1.122 ± 0.011
x1 = 0.3435	1.274 ± 0.013
x1 = 0.4323	1.673 ± 0.017
x1 = 0.5436	2.218 ± 0.022
x1 = 0.6243	2.748 ± 0.028
x1 = 0.7492	4.07 ± 0.043
x1 = 0.84	5.555 ± 0.061

Oc1ccccc1 + Nc1ccccc1
101 kPa
Settings	viscosity [mPa·s]
293.15 K, x1 = 0.0786	5.09 ± 0.05
293.15 K, x1 = 0.1517	6.1 ± 0.06
293.15 K, x1 = 0.2315	7.35 ± 0.08
293.15 K, x1 = 0.3105	8.89 ± 0.09
293.15 K, x1 = 0.3914	10.59 ± 0.11
293.15 K, x1 = 0.473	12.15 ± 0.13
293.15 K, x1 = 0.5355	13.2 ± 0.14
293.15 K, x1 = 0.6225	14.18 ± 0.15
293.15 K, x1 = 0.693	14.47 ± 0.15
293.15 K, x1 = 0.7683	14.21 ± 0.15
293.15 K, x1 = 0.8489	13.31 ± 0.14
293.15 K, x1 = 0.922	12.21 ± 0.13
303.15 K, x1 = 0.0741	3.66 ± 0.04
303.15 K, x1 = 0.1582	4.34 ± 0.05
303.15 K, x1 = 0.2314	5.07 ± 0.06
303.15 K, x1 = 0.3142	5.95 ± 0.07
303.15 K, x1 = 0.3889	6.85 ± 0.08
303.15 K, x1 = 0.4691	7.7 ± 0.09
303.15 K, x1 = 0.5374	8.36 ± 0.1
303.15 K, x1 = 0.6159	8.89 ± 0.11
303.15 K, x1 = 0.6906	9.07 ± 0.11
303.15 K, x1 = 0.7667	8.89 ± 0.11
303.15 K, x1 = 0.8466	8.34 ± 0.1
303.15 K, x1 = 0.9243	7.68 ± 0.09
308.1 K, x1 = 0.349	5.39 ± 0.11
308.1 K, x1 = 0.511	6.54 ± 0.13
308.1 K, x1 = 0.677	7.21 ± 0.14
308.1 K, x1 = 0.795	6.92 ± 0.14
313.15 K, x1 = 0.0741	2.74 ± 0.03
313.15 K, x1 = 0.1582	3.15 ± 0.03
313.15 K, x1 = 0.2314	3.61 ± 0.04
313.15 K, x1 = 0.3142	4.1 ± 0.04
313.15 K, x1 = 0.3889	4.61 ± 0.05
313.15 K, x1 = 0.4691	5.1 ± 0.05
313.15 K, x1 = 0.5374	5.45 ± 0.06
313.15 K, x1 = 0.6159	5.73 ± 0.06
313.15 K, x1 = 0.6906	5.83 ± 0.06
313.15 K, x1 = 0.7667	5.73 ± 0.06
313.15 K, x1 = 0.8466	5.46 ± 0.06
313.15 K, x1 = 0.9243	5.11 ± 0.05

CO/N=C(\C(=O)N[C@@H]1C(=O)N2C(C(=O)[O-])=C(CSc3nc(=O)c(=O)[n-]n3C)CS[C@H]12)c1csc(N)n1.[Na+].[Na+] + O
viscosity [mPa·s], 100 kPa
Settings	293.15 K	298.15 K	303.15 K	308.15 K	313.15 K
x1 = 9e-05	1.012 ± 0.027	0.8968 ± 0.026	0.8033 ± 0.026	0.7267 ± 0.026	0.6584 ± 0.026
x1 = 0.00018	1.016 ± 0.027	0.9026 ± 0.027	0.807 ± 0.027	0.7308 ± 0.026	0.6615 ± 0.026
x1 = 0.000349	1.053 ± 0.043	0.935 ± 0.038	0.829 ± 0.034	0.744 ± 0.03	–
x1 = 0.000873	1.12 ± 0.046	0.994 ± 0.04	0.885 ± 0.036	0.794 ± 0.032	–
x1 = 0.0009	1.03 ± 0.027	0.9163 ± 0.027	0.8185 ± 0.026	0.7413 ± 0.026	0.6726 ± 0.026
x1 = 0.00139	1.2 ± 0.049	1.062 ± 0.043	0.945 ± 0.039	0.849 ± 0.035	–
x1 = 0.002501	1.399 ± 0.057	1.231 ± 0.05	1.1 ± 0.045	0.982 ± 0.04	–
x1 = 0.003119	1.527 ± 0.062	1.348 ± 0.055	1.195 ± 0.049	1.07 ± 0.044	–
x1 = 0.003887	1.701 ± 0.069	1.495 ± 0.061	1.323 ± 0.054	1.184 ± 0.048	–
x1 = 0.004766	1.918 ± 0.078	1.674 ± 0.068	1.48 ± 0.06	1.322 ± 0.054	–
x1 = 0.005482	2.122 ± 0.086	1.858 ± 0.076	1.638 ± 0.067	1.455 ± 0.059	–

— the CheMixHub viscosity set
